Results reported in patent US9593305B2, “Differentiation of pluripotent stem cells” (Janssen Biotech, Inc., priority 2008, dated 2017).

Tested on: H1 human embryonic stem cells
Assay: MTS assay of cell proliferation during definitive endoderm differentiation (Example 23)
Assay type: cell-based
Details: 100 ng/ml growth factor with 8 ng/ml bFGF, with or without Wnt3a
Protocol: Stock cultures of human embryonic stem cells (H1 human embryonic stem cell line) were maintained in an undifferentiated, pluripotent state on reduced growth factor […]™ (BD Biosciences; Cat #356231)-coated dishes in MEF conditioned medium with passage on average every four days. Passage was performed by exposing cell cultures to a solution of 1 mg/ml dispase (Invitrogen, Cat #: 17105-041) for 5 to 7 minutes at 37° C. followed by rinsing the monolayer with MEF conditioned culture medium and gentle scraping to recover cell clusters. Clusters were centrifuged at low speed to collect a cell pellet and remove residual dispase. Cell clusters were split at a 1:3 or 1:4 ratio for routine maintenance culture or a 1:1 ratio for immediate assay. All human embryonic stem cell lines were maintained at passage numbers less than 50 and routinely evaluated for normal karyotypic phenotype and for absence of mycoplasma contamination. […]
At the conclusion of 24, 48, or 72 hours of culture, one set of assay plates was subjected to a MTS assay (Promega; Cat#G3581), following the manufacturer's instructions. In brief, 20 μl of MTS was added to each well, and assay plates were incubated at 37° C., 5% CO2 for four hours prior to taking OD490 readings. […]

Substance | OD490 (MTS) over the three day assay, control treatments
Activin A: recombinant human activin A (PeproTech), TGF-beta family member | incremental increases in OD490
GDF-8: growth factor GDF-8, also known as myostatin, member of the TGF-β family | decrease in OD490 relative to activin A treatment
